Experimental data taken from publication PMC6516043, “Functional Analysis of the Chemosensory Protein GmolCSP8 From the Oriental Fruit Moth, Grapholita molesta (Busck) (Lepidoptera: Tortricidae)” (Frontiers in Physiology, 2019).
Where two headings read alike, the source gives them in different places.

How the values were obtained:
rGmolCSP8 = rGmolCSP8 (Grapholita molesta, UniProt A0A0M4FML8); experiment: Fluorescence competitive binding assay (1-NPN displacement), wild-type; settings: for binding to rGmolCSP8 (in words): wild-type rGmolCSP8, pH 7.4
Sequence of rGmolCSP8 (A0A0M4FML8 entry or part of it): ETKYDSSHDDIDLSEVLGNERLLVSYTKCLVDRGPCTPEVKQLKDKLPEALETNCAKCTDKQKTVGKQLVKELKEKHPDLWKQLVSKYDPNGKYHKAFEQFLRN
Description: The fluorescence spectra were recorded using a fluorescence spectrophotometer (F-4500, Hitachi, Tokyo, Japan) in a 1 cm light path fluorimeter quartz cuvette with 10 nm slits for excitation and 20 nm slits for emission. […] The fluorescent probe N-phenyl-1-naphthylamine (1-NPN) and all putative ligands used in binding assays were dissolved in methanol (HPLC purity grade) to obtain a 1 mM stock solution. The rGmolCSP8 protein was diluted to in 20 mM Tris–HCl to obtain a 2 μM solution, pH 7.4. […] The fluorescent probe was excited at 337 nm and emission spectra were recorded from 370 to 550 nm. […] Binding data were obtained from three replicates assays for each concentration of each tested ligand.

GmolCSP8-V40A = GmolCSP8-V40A (Grapholita molesta, UniProt A0A0M4FML8, V55A); experiment: biochemical; assay type: binding
Sequence of GmolCSP8-V40A (A0A0M4FML8 entry or part of it V55A): as the sequence (A0A0M4FML8 entry or part of it) above, with V40A counted along it
Description: (§1) To determine whether GmolCSP8 is involved in odorant binding, fluorescence competitive binding assays were performed ([Zhong et al., 2012]). The fluorescence spectra were recorded using a fluorescence spectrophotometer (F-4500, Hitachi, Tokyo, Japan) in a 1 cm light path fluorimeter quartz cuvette with 10 nm slits for excitation and 20 nm slits for emission. The selected chemicals are listed in Table 2, and included four sex pheromone components and 34 volatiles from different host plants (peach and pear trees) of G. molesta based on previous investigations ([Natale et al., 2004]; [Lu et al., 2012]; [Najar-Rodriguez et al., 2013b]). The fluorescent probe N-phenyl-1-naphthylamine (1-NPN) and all putative ligands used in binding assays were dissolved in methanol (HPLC purity grade) to obtain a 1 mM stock solution. The rGmolCSP8 protein was diluted to in 20 mM Tris–HCl to obtain a 2 μM solution, pH 7.4. To measure the binding affinity of 1-NPN for GmolCSP8, a 2 μM solution of protein was titrated with aliquots of 1 mM 1-NPN prepared to final concentrations ranging from 1 to 22 μM. The fluorescent probe was excited at 337 nm and emission spectra were recorded from 370 to 550 nm. […] Binding data were obtained from three replicates assays for each concentration of each tested ligand. Dissociation constants (Kd) of protein to 1-NPN were calculated by non-linear regression, using GraphPad Prism 4.00 software (GraphPad Software Inc.). The inhibition constants (Ki) of the competitors were determined using the corresponding IC50 values (concentration of competitor that reduced the initial fluorescence intensity by half) based on the following equation: Ki = [IC50]/(1+[1-NPN]/K1-NPN), where [1-NPN] is the free concentration of 1-NPN and K1-NPN is the dissociation constant of the complex GmolCSP8/1-NPN.
(§2) To verify the four predicted key amino acid sites of GmolCSP8 binding for 1-hexanol, recombinant plasmids for four CSP8 mutants were obtained via site-directed mutagenesis experiments. Specific primers introducing mutation sites of the four key amino acid CSP8 plasmids (GmolCSP8-T27A, GmolCSP8-L30A, GmolCSP8-V40A, and GmolCSP8-L80A) were designed and are listed in Table 1. The four mutants were mutated by using the TaKaRa MutanBEST Kit (TaKaRa, Shiga, Japan) with the pMD®19-T/GmolCSP8 plasmid DNA as template. All plasmids containing mutations were validated by sequencing with five randomly selected single colonies. pMD®19-T plasmids including four CSP8 mutants were digested with Bam HI and Hind III restriction enzymes. Then, the target sequences were ligated into the expression vector pET28a (+) and transformed into BL21 (DE3) competent cells for expression. After sequencing verification, the corresponding rGmolCSP8 mutant proteins were induced and purified, and the binding affinities to 1-hexanol and its analogs were verified via ligand-binding assays according to the method described above.

GmolCSP8-T27A = GmolCSP8-T27A (Grapholita molesta, UniProt A0A0M4FML8, T42A); experiment: biochemical; assay type: binding; settings: for fold decrease in binding vs wild-type: mutant T27A compared with wild-type rGmolCSP8
Sequence of GmolCSP8-T27A (A0A0M4FML8 entry or part of it T42A): as the sequence (A0A0M4FML8 entry or part of it) above, with T27A counted along it
Description: as §1, §2

GmolCSP8-L30A = GmolCSP8-L30A (Grapholita molesta, UniProt A0A0M4FML8, L45A); experiment: biochemical; assay type: binding
Sequence of GmolCSP8-L30A (A0A0M4FML8 entry or part of it L45A): as the sequence (A0A0M4FML8 entry or part of it) above, with L30A counted along it
Description: as §1, §2

GmolCSP8-L80A = GmolCSP8-L80A (Grapholita molesta, UniProt A0A0M4FML8, L95A); experiment: biochemical; assay type: binding
Sequence of GmolCSP8-L80A (A0A0M4FML8 entry or part of it L95A): as the sequence (A0A0M4FML8 entry or part of it) above, with L80A counted along it
Description: as §1, §2

[1] = 2 μM rGmolCSP8 and 2 μM 1-NPN, 20 mM Tris-HCl pH 7.4, read-out: IC50
[2] = 2 μM rGmolCSP8 and 2 μM 1-NPN, pH 7.4, calculated from IC50, read-out: Ki
[3] = mutant L30A compared with wild-type
[4] = read-out: Ki (μM) L30A; mutant L30A; – = lost ability to bind

| Structure (SMILES) | IC50 (rGmolCSP8; [1]) | Ki (rGmolCSP8; [2]) | also measured |
| --- | --- | --- | --- |
| CCCCO [1-butanol] | 7.32 ± 0.56 µM | 6.65 ± 0.52 µM | Ki (rGmolCSP8; Table 3, wild-type rGmolCSP8, read-out: Ki (μM) Wild-Type): 6.65 ± 0.52 µM; Ki (GmolCSP8-V40A; mutant V40A, read-out: Ki (μM) V40A): 8.07 ± 0.61 µM; IC50 (GmolCSP8-T27A; mutant T27A, ligands up to 24 μM, read-out: ligand concentration displacing 50% 1-NPN from CSP8-T27A/1-NPN complex): > 24 µM; Ki (GmolCSP8-T27A; mutant T27A, – = did not displace 50% 1-NPN at ligand up to 24 μM, read-out: Ki (μM) T27A): > 24 µM; Ki (GmolCSP8-L30A; mutant L30A; – = lost ability to bind; read-out: Ki (μM) L30A): 17.1 ± 1.05 µM; Ki (GmolCSP8-L80A; mutant L80A, read-out: Ki (μM) L80A): 6.75 ± 0.57 µM |
| CCCCCCCCCCO [1-decanol] | 7.16 ± 0.58 µM | 6.6 ± 0.54 µM | Ki (GmolCSP8-V40A): 7.02 ± 0.47 µM; Ki (GmolCSP8-T27A): 12.7 ± 1.79 µM; fold decrease in binding vs wild-type (GmolCSP8-T27A): 1.5- to 2.0 fold; binding to mutant L30A (in words) (GmolCSP8-L30A; [3]): lost its ability to bind; Ki (GmolCSP8-L30A; [4]): > 24 µM; Ki (GmolCSP8-L80A): 6.32 ± 0.65 µM |
| CCCCCCCO [1-heptanol] | 6.79 ± 0.56 µM | 6.2 ± 0.42 µM | Ki (GmolCSP8-V40A): 9.68 ± 0.75 µM; Ki (GmolCSP8-T27A): 9.01 ± 0.9 µM; fold decrease in binding vs wild-type (GmolCSP8-T27A): 1.5- to 2.0 fold; binding to mutant L30A (in words) (GmolCSP8-L30A; [3]): lost its ability to bind; Ki (GmolCSP8-L30A; [4]): > 24 µM; Ki (GmolCSP8-L80A): 6.02 ± 0.66 µM |
| CCCCCO [1-pentanol] | 8.79 ± 0.99 µM | 8.18 ± 0.93 µM | Ki (GmolCSP8-V40A): 12.4 ± 1.41 µM; IC50 (GmolCSP8-T27A): > 24 µM; Ki (GmolCSP8-T27A; read-out: Ki (μM) T27A, mutant T27A, – = did not displace 50% 1-NPN at ligand up to 24 μM): > 24 µM; binding to mutant L30A (in words) (GmolCSP8-L30A; [3]): lost its ability to bind; Ki (GmolCSP8-L30A; [4]): > 24 µM; Ki (GmolCSP8-L80A): 6.66 ± 0.64 µM |
| CCCCCCCCCCCCCCO [1-tetradecanol] |  |  | IC50 (rGmolCSP8): > 24 µM; Ki (rGmolCSP8): > 24 µM; binding to rGmolCSP8 (in words) (rGmolCSP8): unable to bind |
| CC(C)CCO [3-methyl-1-butanol] | 6.6 ± 0.45 µM | 6.32 ± 0.52 µM |  |
| CCC/C=C/C=O [(E)-2-hexenal] | > 24 µM | > 24 µM | binding to rGmolCSP8 (in words) (rGmolCSP8): cannot bind |
| CCC/C=C/CCCCCCCOC(C)=O [(E)-8-dodecenyl acetate] | > 24 µM | > 24 µM |  |
| CCC/C=C\CCCCCCCOC(C)=O [(Z)-8-dodecenyl acetate] | > 24 µM | > 24 µM |  |
| CCC/C=C\CCCCCCCO [(Z)-8-dodecenyl alcohol] | > 24 µM | > 24 µM |  |
| O=Cc1ccccc1 [Benzaldehyde] |  |  | IC50 (rGmolCSP8): > 24 µM; Ki (rGmolCSP8): > 24 µM; binding to rGmolCSP8 (in words) (rGmolCSP8): cannot bind |
| N#Cc1ccccc1 [Benzonitrile] | > 24 µM | > 24 µM | binding to rGmolCSP8 (in words) (rGmolCSP8): cannot bind |
| CCCCOC(C)=O [Butyl acetate] |  |  | IC50 (rGmolCSP8): > 24 µM; Ki (rGmolCSP8): > 24 µM |
| CCCCOC(=O)CCC [Butyl butyrate] | > 24 µM | > 24 µM |  |
| CCCCCC(=O)OCCCC [Butyl hexanoate] | > 24 µM | > 24 µM | binding to rGmolCSP8 (in words) (rGmolCSP8): cannot bind |
| CC/C=C\CCO [Cis-3-hexen-1-ol] | 9.14 ± 0.73 µM | 8.51 ± 0.68 µM |  |
| CC/C=C\CCOC(C)=O [Cis-3-hexenyl acetate] | > 24 µM | > 24 µM | binding to rGmolCSP8 (in words) (rGmolCSP8): cannot bind |
| CCCCCCCCCC=O [Decanal] | > 24 µM | > 24 µM |  |

| Structure (SMILES) | IC50 (rGmolCSP8; [1]) | Ki (rGmolCSP8; [2]) | also measured |
| --- | --- | --- | --- |
| CCCCCCCCCC [Decane] | > 24 µM | > 24 µM |  |
| CCCC(=O)OCC [Ethyl butyrate] | > 24 µM | > 24 µM |  |
| CCCCCCC(=O)OCC [Ethyl heptanoate] | > 24 µM | > 24 µM |  |
| CCCCCC(=O)OCC [Ethyl hexanoate] | > 24 µM | > 24 µM |  |
| CCCCCCC=O [Heptanal] | > 24 µM | > 24 µM | binding to rGmolCSP8 (in words) (rGmolCSP8): cannot bind |
| CCCCCCCCCCCCCCCC [Hexadecane] | > 24 µM | > 24 µM |  |
| CCCCCC=O [Hexanal] | > 24 µM | > 24 µM | binding to rGmolCSP8 (in words) (rGmolCSP8): cannot bind |
| CCCCCCOC(C)=O [Hexyl acetate] | > 24 µM | > 24 µM |  |
| CC(=O)OCCC(C)C [Isoamyl acetate] | > 24 µM | > 24 µM |  |
| CC/C=C\CC1C(=O)CCC1CC(=O)OC (stereo not drawn) [Methyl jasmonate] | > 24 µM | > 24 µM |  |
| COC(=O)c1ccccc1O [Methyl salicylate] | > 24 µM | > 24 µM |  |
| CCCCCCCCC=O [Nonanal] | > 24 µM | > 24 µM |  |
| CCCCCCCCCCCCCCCCCC [Octadecane] | > 24 µM | > 24 µM |  |
| CCCCCCCC=O [Octanal] | > 24 µM | > 24 µM |  |
| CCCCCCCCCCCCCCC [Pentadecane] | > 24 µM | > 24 µM |  |
| CCCCCCCCCCCCCC [Tetradecane] | > 24 µM | > 24 µM |  |
| C=C/C(C)=C/CCC(=C)C [α-Ocimene] | 18.9 ± 1.29 µM | 17.6 ± 0.81 µM |  |
| CC1=CCC2CC1C2(C)C (stereo not drawn) [α-Pinene] | > 24 µM | > 24 µM | binding to rGmolCSP8 (in words) (rGmolCSP8): cannot bind |
